Reference: patent publication US20170044492A1, “CONVERSION OF SOMATIC CELLS INTO NOCICEPTORS, AND METHODS OF USE THEREOF” (CHILDERN'S MEDICAL CENTER CORPORATION, priority 2013, published 2017)
Several values for one entry are separate records, joined by “and”; a condition that tells them apart may be missing. Equal values may be shown once. Read-outs that look alike come from different tables or passages of the source.

Assays:
induced nociceptors [1] = assay type: cell-based, mouse
BAM-derived neurons = assay type: cell-based, mouse
primary DRGs = assay type: cell-based, mouse
TrpV1 receptor = target: T1, TrpV1 receptor (Mus musculus, UniProt Q704Y3); assay: PGE2 sensitization of the capsaicin response, calcium imaging of induced nociceptors; assay type: cell-based
T1 construct: endogenous in cells; host or cells: tdTomato-positive induced nociceptors reprogrammed from TrpV1-Cre+/-::tdTomato+/- mouse embryonic fibroblasts
T1 sequence (Q704Y3 whole entry): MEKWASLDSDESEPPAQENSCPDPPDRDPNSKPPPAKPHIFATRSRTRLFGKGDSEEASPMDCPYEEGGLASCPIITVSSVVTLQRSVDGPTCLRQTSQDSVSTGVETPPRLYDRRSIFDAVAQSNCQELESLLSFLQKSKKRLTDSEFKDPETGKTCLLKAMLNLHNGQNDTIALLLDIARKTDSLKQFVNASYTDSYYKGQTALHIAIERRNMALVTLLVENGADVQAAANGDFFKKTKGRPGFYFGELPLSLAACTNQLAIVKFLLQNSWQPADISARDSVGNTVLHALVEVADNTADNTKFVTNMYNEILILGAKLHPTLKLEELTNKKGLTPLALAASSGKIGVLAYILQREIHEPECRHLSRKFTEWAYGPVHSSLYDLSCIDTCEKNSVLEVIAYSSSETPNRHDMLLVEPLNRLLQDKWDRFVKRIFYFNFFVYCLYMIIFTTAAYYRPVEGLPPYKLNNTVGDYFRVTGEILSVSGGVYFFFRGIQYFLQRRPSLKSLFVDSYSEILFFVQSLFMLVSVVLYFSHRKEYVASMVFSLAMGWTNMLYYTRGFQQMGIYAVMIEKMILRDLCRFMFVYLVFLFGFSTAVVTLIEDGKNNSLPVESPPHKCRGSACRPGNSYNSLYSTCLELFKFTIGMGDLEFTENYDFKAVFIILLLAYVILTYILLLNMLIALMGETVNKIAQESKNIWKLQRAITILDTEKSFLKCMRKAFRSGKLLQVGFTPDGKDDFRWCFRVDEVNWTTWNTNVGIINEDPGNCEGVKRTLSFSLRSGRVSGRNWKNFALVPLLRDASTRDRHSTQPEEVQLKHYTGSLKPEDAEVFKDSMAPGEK

[2] = system: tdTomato-positive induced neurons; assay: Whole-cell patch clamp of induced nociceptors; assay type: cell-based, mouse
induced human neurons = assay: Whole-cell patch clamp of induced human neurons; assay type: cell-based
[3] = system: tdTomato-positive induced nociceptors; assay: Calcium imaging of tdTomato-positive induced nociceptors with Trp channel agonists; assay type: cell-based, mouse
[4] = system: tdTomato-positive primary DRG neurons; assay: Calcium imaging of tdTomato-positive primary DRG neurons with Trp channel agonists; assay type: cell-based, mouse
[5] = system: KCl-responding neurons derived from the BAM factors; assay: Calcium imaging of neurons derived from the BAM factors alone; assay type: cell-based, mouse
induced neurons = assay: Extracellular multi-electrode array recording of induced neurons after agonist application; assay type: cell-based, mouse
induced nociceptors [6] = assay type: cell-based, mouse; remark: listed apart in the source
[7] = target: T2, P2X3 subtype of ionotropic purinergic receptors (Mus musculus, UniProt Q3UR32); assay: Whole-cell patch clamp of P2X3 currents in induced nociceptors; assay type: cell-based; conditions: 30 μM
T2 construct: Whole-cell patch recordings were performed on induced tdTomato-positive nociceptors, derived from TrpV1-Cre^+/−::tdTomato^+/− MEFs; endogenous in cells; host or cells: tdTomato-positive induced nociceptors reprogrammed from TrpV1-Cre+/-::tdTomato+/- mouse embryonic fibroblasts
T2 sequence (Q3UR32 1-397): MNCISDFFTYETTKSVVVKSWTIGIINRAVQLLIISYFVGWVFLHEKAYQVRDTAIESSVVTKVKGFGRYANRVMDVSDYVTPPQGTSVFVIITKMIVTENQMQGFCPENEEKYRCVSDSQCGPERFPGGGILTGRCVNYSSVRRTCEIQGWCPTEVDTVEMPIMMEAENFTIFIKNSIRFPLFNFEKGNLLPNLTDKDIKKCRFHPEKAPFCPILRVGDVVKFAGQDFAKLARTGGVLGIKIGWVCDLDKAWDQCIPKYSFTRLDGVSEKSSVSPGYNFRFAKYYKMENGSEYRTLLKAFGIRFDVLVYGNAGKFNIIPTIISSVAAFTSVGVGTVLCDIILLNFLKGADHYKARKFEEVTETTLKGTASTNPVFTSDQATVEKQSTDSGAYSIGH

[8] = induced nociceptors, capsaicin 1 μM, mustard oil 100 μM, menthol 250 μM, n=227 tdTomato-positive cells that responded to KCl
[9] = adult TrpV1::tdTomato mice, same procedure, n=249 tdTomato-positive cells that responded to KCl

Molecule: [Cl-].[K+] [KCl, potassium chloride]
- CGRP released, mean (s.e.m.) (induced nociceptors [1]): 390.4 (52.5) pg ml-1
- CGRP released, mean (s.e.m.) (BAM-derived neurons): 10.3 (2.6) pg ml-1
- CGRP release from primary DRGs (primary DRGs): dose-dependent increase in CGRP release

Molecule: CCCCC[C@H](O)/C=C/[C@H]1[C@H](O)CC(=O)[C@@H]1C/C=C\CCCC(=O)O [PGE2, Prostaglandin E2]
- mean change in fluorescence absorption ratio, PGE2-sensitized capsaicin response (TrpV1 receptor; second 300 nM capsaicin application after 1 μM PGE2 for two minutes, n=41): 0.18±6.0*10^−3

Molecule: NC1=N[C@H](O)[C@H]2[C@H]3O[C@]4(O)O[C@@H]([C@@H](O)[C@@]2(N1)[C@@H]4O)[C@]3(O)CO [TTX, tetrodotoxin]
- induced neurons firing single TTX-resistant action potentials overshooting 0 mV (neurons/total) [2]: 8/16 and 7/12
- induced neurons with TTX-resistant sodium currents greater than 50 pA (neurons/total) [2]: 14/15
- neurons with TTX-resistant sodium currents (neurons/total) (induced human neurons): 10/10

Molecule: COc1cc(CNC(=O)CCCC/C=C/C(C)C)ccc1O [capsaicin]
- tdTomato-positive cells that responded to agonist [3, 8]: 39%
- tdTomato-positive primary DRG neurons that responded to agonist [4, 9]: 36%
- KCl-responding neurons that responded to capsaicin (responders/total) [5]: 0/50
- arrays with robust action potential firing after agonist application (arrays/total) (induced neurons; capsaicin 1 μM, mustard oil 100 μM): 3/3
- neurons with inward currents elicited by capsaicin (neurons/total) ([2]; 1 μM capsaicin, voltage clamp, holding −80 mV): 6/11
- mean change in fluorescence absorption ratio, initial capsaicin response (TrpV1 receptor; 300 nM capsaicin, before PGE2): 0.028±3.0*10^−3

Molecule: CC1CCC(C(C)C)C(O)C1 (stereo not drawn) [menthol]
- tdTomato-positive cells that responded to agonist [3, 8]: 3%
- tdTomato-positive primary DRG neurons that responded to agonist [4, 9]: 2.5%

Molecule: C=CCN=C=S [mustard oil]
- tdTomato-positive cells that responded to agonist [3]: 9%
- tdTomato-positive primary DRG neurons that responded to agonist [4]: 2.5%
- arrays with robust action potential firing after agonist application (arrays/total) (induced neurons): 3/3

Molecule: O=C1[O][Pt]2([NH][C@@H]3CCCC[C@H]3[NH]2)[O]C1=O [oxaliplatin]
- sensitization of capsaicin response (spikes) (induced nociceptors [6]): marked sensitization

Molecule: Nc1ncnc2c1ncn2[C@@H]1O[C@H](COP(=O)(O)CP(=O)(O)OP(=O)(O)O)[C@@H](O)[C@H]1O [α, β-methylene-ATP]
- neurons with rapidly-adapting inward currents elicited by agonist (neurons/total) [7]: 8/16

Molecule: ZD7288
- neurons with ZD7288-sensitive HCN currents (neurons/total) [2]: 2/2
